Source: ChEMBL document CHEMBL4011583, “Enhancing activity and selectivity in a series of pyrrol-1-yl-1-hydroxypyrazole-based aldose reductase inhibitors: The case of trifluoroacetylation” (Eur J Med Chem, 2017)

Legend:
[1] = Inhibition of Wistar rat lens ALR2 assessed as reduction in NADPH oxidation using D,L-glyceraldehyde as substrate by UV-visible spectrophotometric method
[2] = biological target: Aldo-keto reductase family 1 member A1 (Rattus norvegicus, UniProt P51635); assay: Inhibition of Wistar rat kidney ALR1 assessed as reduction in NADPH oxidation using D-glycuronate as substrate by UV-visible spectrophotometric method
Sequence of Aldo-keto reductase family 1 member A1 (P51635 whole entry, looked up): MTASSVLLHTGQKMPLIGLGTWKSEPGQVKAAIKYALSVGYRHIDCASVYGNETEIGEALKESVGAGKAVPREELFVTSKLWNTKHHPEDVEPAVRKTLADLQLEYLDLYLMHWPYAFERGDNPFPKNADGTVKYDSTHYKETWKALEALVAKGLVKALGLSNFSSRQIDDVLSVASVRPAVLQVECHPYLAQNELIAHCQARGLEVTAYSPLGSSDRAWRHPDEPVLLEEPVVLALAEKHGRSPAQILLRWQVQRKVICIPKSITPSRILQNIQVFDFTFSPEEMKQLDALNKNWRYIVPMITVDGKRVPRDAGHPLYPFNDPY

[3] = organism: Rattus norvegicus; assay: Selectivity index, ratio of IC50 for Wistar rat kidney ALR1 to IC50 for Wistar rat lens ALR2
[4] = Inhibition of Fischer-344 rat lens ALR2
[5] = Mixed-type inhibition of recombinant human ALR2 expressed in Escherichia coli BL21 (DE3) assessed as enzyme-inhibitor complex using varying levels of L-idose substrate by Hanes-Woolf plot analysis
[6] = organism: Rattus norvegicus; assay: Inhibition of ALR2 in Wistar rat lens assessed as reduction in glucose induced-sorbitol accumulation by measuring sorbitol level at 50 uM pretreated for 30 mins followed by glucose challenge measured after 3 hrs by resazurin dye based fluorescence assay relative to control; design: scale not given: the % may be the effect or the level left
[7] = organism: Rattus norvegicus; assay: Inhibition of ALR2 in Wistar rat lens assessed as reduction in glucose induced-sorbitol accumulation by measuring sorbitol level at 2 uM pretreated for 30 mins followed by glucose challenge measured after 3 hrs by resazurin dye based fluorescence assay (reference value: 1026.51 +/- 157.33)
[8] = Mixed-type inhibition of recombinant human ALR2 expressed in Escherichia coli BL21 (DE3) assessed as enzyme-substrate-inhibitor complex using varying levels of L-idose substrate by Hanes-Woolf plot analysis
[9] = Mixed-type inhibition of recombinant human ALR2 expressed in Escherichia coli BL21 (DE3) assessed as enzyme-inhibitor complex using varying levels of glutathionyl-4-hydroxytrans-2-nonenal substrate by Hanes-Woolf plot analysis
[10] = Mixed-type inhibition of recombinant human ALR2 expressed in Escherichia coli BL21 (DE3) assessed as enzyme-inhibitor complex using varying levels of D,L-glyceraldehyde substrate by Hanes-Woolf plot analysis
[11] = Mixed-type inhibition of recombinant human ALR2 expressed in Escherichia coli BL21 (DE3) assessed as enzyme-substrate-inhibitor complex using varying levels of 4-hydroxy-trans-2-nonenal substrate by Hanes-Woolf plot analysis
[12] = Mixed-type inhibition of recombinant human ALR2 expressed in Escherichia coli BL21 (DE3) assessed as enzyme-inhibitor complex using varying levels of 4-hydroxy-trans-2-nonenal substrate by Hanes-Woolf plot analysis
[13] = organism: Homo sapiens; assay: Ratio of Ki for recombinant human ALR2 expressed in Escherichia coli BL21 (DE3) assessed as enzyme-substrate-inhibitor complex using varying levels of glutathionyl-4-hydroxytrans-2-nonenal substrate to Ki for human ALR2 expressed in Escherichia coli BL21 (DE3) assessed as enzyme-inhibitor complex using varying levels of glutathionyl-4-hydroxytrans-2-nonenal substrate
[14] = Mixed-type inhibition of recombinant human ALR2 expressed in Escherichia coli BL21 (DE3) assessed as enzyme-substrate-inhibitor complex using varying levels of D,L-glyceraldehyde substrate by Hanes-Woolf plot analysis
[15] = organism: Rattus norvegicus; assay: Inhibition of ALR2 in Wistar rat lens assessed as reduction in glucose induced-sorbitol accumulation by measuring sorbitol level at 10 uM pretreated for 30 mins followed by glucose challenge measured after 3 hrs by resazurin dye based fluorescence assay (reference value: 1026.51 +/- 157.33)
[16] = Mixed-type inhibition of recombinant human ALR2 expressed in Escherichia coli BL21 (DE3) assessed as enzyme-substrate-inhibitor complex using varying levels of glutathionyl-4-hydroxytrans-2-nonenal substrate by Hanes-Woolf plot analysis

| Structure (SMILES) | IC50 [1] [nM] | pIC50 [1] | IC50 [2] [nM] | IC50 [4] [nM] | Activity [6] [%] | Activity [7] [nmol/g] | Ratio Ki [13] | Activity [15] [nmol/g] | Ratio IC50 [3] | Ki [5] [nM] | Ki [8] [nM] | Ki [9] [nM] | Ki [10] [nM] | Ki [11] [nM] | Ki [12] [nM] | Ki [14] [nM] | Ki [16] [nM] |
| --- | --- | --- | --- | --- | --- | --- | --- | --- | --- | --- | --- | --- | --- | --- | --- | --- | --- |
| O=C(c1cccc(F)c1)c1cc(C(=O)C(F)(F)F)n(-c2cnn(O)c2)c1 | 140 | 6.85 | 42300 | – | – | – | – | – | 339 | – | – | – | – | – | – | – | – |
| O=C(c1ccc(-c2ccccc2)cc1)c1cc(C(=O)C(F)(F)F)n(-c2cnn(O)c2)c1 | 74 | 7.19 | 14100 | – | – | – | – | – | 190 | – | – | – | – | – | – | – | – |
| O=C1NC(=O)[C@@]2(CCOc3ccc(F)cc32)N1 [SORBINIL] | – | – | – | 250 | – | – | – | – | – | – | – | – | – | – | – | – | – |
| O=C(c1ccccc1)c1cc(C(=O)C(F)(F)F)n(-c2cnn(O)c2)c1 | 242 | 6.62 | > 100000 | – | – | – | – | – | > 413 | – | – | – | – | – | – | – | – |
| COc1cccc(C(=O)c2cc(C(=O)C(F)(F)F)n(-c3cnn(O)c3)c2)c1 | 64 | 7.13 | 23700 | – | – | – | – | – | 370 | – | – | – | – | – | – | – | – |

Second part, led by results:

| IC50 [1] [nM] | pIC50 [1] | IC50 [2] [nM] | IC50 [4] [nM] | Activity [6] [%] | Activity [7] [nmol/g] | Ratio Ki [13] | Activity [15] [nmol/g] | Structure (SMILES) | Ratio IC50 [3] | Ki [5] [nM] | Ki [8] [nM] | Ki [9] [nM] | Ki [10] [nM] | Ki [11] [nM] | Ki [12] [nM] | Ki [14] [nM] | Ki [16] [nM] |
| --- | --- | --- | --- | --- | --- | --- | --- | --- | --- | --- | --- | --- | --- | --- | --- | --- | --- |
| 94 | 7.03 | 72800 | – | – | – | – | – | CS(=O)(=O)c1ccc(C(=O)c2cc(C(=O)C(F)(F)F)n(-c3cnn(O)c3)c2)cc1 | 775 | – | – | – | – | – | – | – | – |
| 73 | 7.14 | 34200 | – | – | – | – | – | COc1ccc(C(=O)c2cc(C(=O)C(F)(F)F)n(-c3cnn(O)c3)c2)cc1 | 468 | – | – | – | – | – | – | – | – |
| 78 | 7.11 | 67100 | – | 55 | 838 | 0.75 | 710 | O=C(c1ccc(F)cc1)c1cc(C(=O)C(F)(F)F)n(-c2cnn(O)c2)c1 | 858 | 8610 | 700 | 1860 | 5270 | 2190 | 5840 | 820 | 2460 |
| 43 | 7.37 | 27900 | – | 55 | 889 | 0.75 | 613 | CSc1ccc(C(=O)c2cc(C(=O)C(F)(F)F)n(-c3cnn(O)c3)c2)cc1 | 650 | 4550 | 270 | 690 | 2010 | 390 | 2830 | 210 | 930 |
